Reference: patent US6855730B2, “3-methylidenyl-2-indolinone modulators of protein kinase” (Sugen, Inc., priority 1998, dated 2005)

Target: T1, flkGST (Homo sapiens, UniProt P35968)
T1 construct: GST
Experiment: bio flkGST assay
Type: biochemical

T1 sequence (P35968 786-1356 limits assumed): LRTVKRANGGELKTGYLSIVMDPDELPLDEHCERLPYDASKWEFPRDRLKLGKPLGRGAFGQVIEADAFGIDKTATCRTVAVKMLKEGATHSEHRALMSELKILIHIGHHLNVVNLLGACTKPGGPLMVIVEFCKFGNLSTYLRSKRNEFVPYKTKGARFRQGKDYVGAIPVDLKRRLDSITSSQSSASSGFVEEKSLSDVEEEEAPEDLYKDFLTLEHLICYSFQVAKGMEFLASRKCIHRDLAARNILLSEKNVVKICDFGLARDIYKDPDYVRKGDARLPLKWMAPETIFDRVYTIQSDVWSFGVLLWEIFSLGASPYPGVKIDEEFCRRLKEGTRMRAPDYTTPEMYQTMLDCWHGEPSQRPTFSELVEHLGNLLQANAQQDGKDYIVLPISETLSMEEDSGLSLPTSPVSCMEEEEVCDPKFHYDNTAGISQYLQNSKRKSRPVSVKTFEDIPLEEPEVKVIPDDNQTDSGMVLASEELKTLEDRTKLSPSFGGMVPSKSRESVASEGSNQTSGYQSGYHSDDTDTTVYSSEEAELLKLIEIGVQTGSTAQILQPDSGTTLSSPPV

| SMILES | IC50 [nM] |
| --- | --- |
| Cc1[nH]c2ccccc2c1/C=C1\C(=O)Nc2ccc(C(=O)O)cc21 [Example 182, 3-(2-Methyl-1H-indol-3-ylmethylene)-2-oxo-2,3-dihydro-1H-indole-5-carboxylic acid] | 18700 |
| Cc1c(/C=C2\C(=O)Nc3ccc(N)cc32)[nH]c2ccccc12 [Example 180, 5-Amino-3-(3-methyl-1H-indol-2-ylmethylene)-1,3-dihydroindol-2-one] | 1110 |
| Nc1ccc2c(c1)/C(=C/c1ccc3[nH]ccc3c1)C(=O)N2 [Example 179, 5-Amino-3-(1H-indol-5-ylmethylene)-1,3-dihydro-indol-2-one] | 1840 |
| CCOC(=O)c1c(C)[nH]c(/C=C2\C(=O)Nc3ccc(Br)cc32)c1CCC(=O)O [Compound 114, 5-(5-Bromo-2-oxo-1,2-dihydroindol-3-ylidenemethyl)-4-(2-carboxyethyl)-2-methyl-1H-pyrrole-3-carboxylic acid ethyl ester] | 3310 |
| Cc1cc(CCC(=O)O)c(/C=C2\C(=O)Nc3ccc(Br)cc32)[nH]1 [Compound 116, 3-[2-(5-Bromo-2-oxo-1,2-dihydroindol-3-ylidenemethyl)-5-methyl-1H-pyrrol-3-yl]-propionic acid] | 100 |
| CNS(=O)(=O)c1ccc2c(c1)/C(=C/c1cc3ccccc3[nH]1)C(=O)N2 [Example 173, 3-(1H-Indol-2-ylmethylene)-2-oxo-2,3-dihydro-1H-indole-5-sulfonic acid methylamide] | 11100 |
| NS(=O)(=O)c1ccc2c(c1)/C(=C/c1c[nH]c3ccccc13)C(=O)N2 [Example 172, 3-(1H-Indol-3-ylmethylene)-2-oxo-2,3-dihydro-1H-indole-5-sulfonic acid amide] | 10500 |
| O=C1Nc2ccc(C(=O)O)cc2/C1=C/c1c[nH]c2ccccc12 [Example 174, 3-(1H-Indol-3-ylmethylene)-2-oxo-2,3-dihydro-1H-indole-5-carboxylic acid] | 1850 |
| Cc1[nH]c2ccccc2c1/C=C1\C(=O)Nc2ccc(N)cc21 [Example 187, 5-Amino-3-(2-methyl-1H-indol-3-ylmethylene)-1,3-dihydroindol-2-one] | > 20000 |
| O=C1Nc2ccc(C(=O)O)cc2/C1=C/c1ccc2[nH]ccc2c1 [Example 177, 3-(1H-Indol-5-ylmethylene)-2-oxo-2,3-dihydro-1H-indole-5-carboxylic acid] | 1340 |
| Cc1c[nH]c(/C=C2\C(=O)Nc3ccccc32)c1CCC(=O)O [Example 215, 3-[4-Methyl-2-(2-oxo-1,2-dihydroindol-3-ylidenemethyl)-1H-pyrrol-3-yl]-propionic acid] | 80 |
